Test results reported in patent publication US20120251551A1, “Substituted (Heteroarylmethyl)thiohydantoins” (BAYER PHARMA AKTIENGESELLSCHAFT, priority 2009, published 2012).
Residue numbers refer to the chain shown, from its start. Like-named read-outs stand apart in the source and are kept apart here.

Columns and labels:
[1] = system: VCaP cells; test: Proliferation assay with VCaP cells; assay type: cell-based; details: Homo sapiens, 168 h, R1881 (1×10^−10) stimulated growth
Outline: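 Cells in DMEM with 10% charcoal-stripped serum treated one day after seeding with R1881 (1×10^−10) plus compound. Cell number read by Alamar Blue fluorescence (ex 530/em 590 nm) at day 0 and day 7; day-7 R1881-only signal defines stimulated growth, day-7 signal without R1881 defines basal level.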

[2] = molecular target: T1, human androgen receptor E709Y mutant (Homo sapiens, UniProt P10275, E710Y); test: Cell-based transactivation assay for human androgen receptor mutant E709Y
T1 construct: expressed in transfected cells; host or cells: PC-3 cells, transient transfection with a pSG5-derived plasmid
T1 sequence (P10275 1-920 E710Y): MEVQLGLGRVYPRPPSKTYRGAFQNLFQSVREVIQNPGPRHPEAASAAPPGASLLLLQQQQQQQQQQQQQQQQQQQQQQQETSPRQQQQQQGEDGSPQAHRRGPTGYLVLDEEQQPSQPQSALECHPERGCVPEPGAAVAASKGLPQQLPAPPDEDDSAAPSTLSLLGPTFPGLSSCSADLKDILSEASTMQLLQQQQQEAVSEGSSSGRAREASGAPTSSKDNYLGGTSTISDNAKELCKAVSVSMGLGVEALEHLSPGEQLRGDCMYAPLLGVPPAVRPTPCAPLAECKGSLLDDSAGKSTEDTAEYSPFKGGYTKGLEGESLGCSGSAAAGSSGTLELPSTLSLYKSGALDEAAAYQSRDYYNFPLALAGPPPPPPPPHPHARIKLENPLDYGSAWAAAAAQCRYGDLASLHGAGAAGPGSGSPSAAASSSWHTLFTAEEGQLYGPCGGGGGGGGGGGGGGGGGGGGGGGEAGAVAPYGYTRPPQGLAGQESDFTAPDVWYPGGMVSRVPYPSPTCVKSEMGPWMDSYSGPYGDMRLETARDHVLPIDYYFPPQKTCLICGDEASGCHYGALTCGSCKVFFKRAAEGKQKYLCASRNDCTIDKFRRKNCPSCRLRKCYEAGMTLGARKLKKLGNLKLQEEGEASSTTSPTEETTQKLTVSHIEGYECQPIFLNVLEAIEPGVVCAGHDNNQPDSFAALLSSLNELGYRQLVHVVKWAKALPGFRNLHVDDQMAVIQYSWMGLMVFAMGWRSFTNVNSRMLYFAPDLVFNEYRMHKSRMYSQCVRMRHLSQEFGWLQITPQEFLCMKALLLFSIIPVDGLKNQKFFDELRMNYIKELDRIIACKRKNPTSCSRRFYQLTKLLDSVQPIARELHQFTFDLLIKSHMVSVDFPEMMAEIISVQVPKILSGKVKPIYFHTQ
Procedure: Cell-Based Transactivation Assay for Human Androgen Receptor Mutant E709Y
PC-3 cells (Kaighn et al., Invest. Urol. 17:16-23, 1979) were grown in 5% charcoal-stripped medium and seeded at a concentration of 10000 cells per well in a 96-well plate. They were transiently transfected with a pSG5-derived plasmid (#216201 from Stratagene, La Jolla, Calif., USA) coding for the human androgen receptor E709Y mutant (Georget et al., Molecular Endocrinology, 20(4): 724-734, 2006) and an MMTV-Luciferase reporter plasmid based on pGL4.14 14 (#E6691, Promega Corporation, Madison, Wis., USA). The compound to be tested was added at a concentration range varying from 1×10^−9 to 1×10^−6 M together with 1×10^−10 R1881. After 24 h incubation at 37° C. in a 5% CO2 atmosphere, 100 μl of Steady Glo Lysis and Detection reagent (Steady Glo Luciferase assay system E2550 from Promega Corporation. Madison, Wis., USA) were added. Antagonistic activity was determined by measuring Luciferase activity in a Victor 3 Luminometer (PerkinElmer, Waltham, Mass., USA) using the Steady Glo Luciferase Assay (E2550, Promega). IC50 values were calculated for anti-androgenic activity.

[3] = molecular target: T2, wild-type human androgen receptor (Homo sapiens, UniProt P10275); test: Cell-based transactivation assay for wild-type human androgen receptor (PC-3 cells, MMTV-luciferase reporter)
T2 construct: expressed in transfected cells
T2 sequence (P10275 1-920): T1 sequence (P10275 1-920 E710Y) with Y710E

[4] = day 7, read-out: Antiproliferative activity VCaP IC50
[5] = day 7, read-out: inhibition IC50 (VCaP)

CN1C(=S)N(c2ccc(C#N)c(C(F)(F)F)c2)C(=O)C1(C)C [2-(Trifluoromethyl)-4-(3,4,4-trimethyl-5-oxo-2-thioxoimidazolidin-1-yl)benzonitrile, reference compound]
IC50 [1, 4]: > 1000 nM | IC50 [2]: 117 nM | EC50 [3]: 7.97 nM

CC1(C)C(=O)N(c2ccc(C#N)c(C(F)(F)F)c2)C(=S)N1CCCCO [4-[3-(4-Hydroxybutyl)-4,4-dimethyl-5-oxo-2-thioxoimidazolidin-1-yl]-2-(trifluoromethyl)benzonitrile, reference compound]
IC50 [1, 4]: > 1000 nM | IC50 [2]: > 1000 nM | EC50 [3]: 8.13 nM

CC1(C)C(=O)N(c2ccc(C#N)c(C(F)(F)F)c2)C(=S)N1Cc1ccc(F)cc1 [Comparative data^4]
IC50 [1, 4]: > 1000 nM | IC50 [2]: > 1000 nM | EC50 [3]: 1.79 nM

CC1(C)C(=O)N(c2ccc(C#N)c(C(F)(F)F)c2)C(=S)N1Cc1ccccc1 [Comparative data^4]
IC50 [1, 4]: > 1000 nM | IC50 [2]: 587 nM | EC50 [3]: 46.4 nM

CC1(C)C(=O)N(c2ccc(C#N)c(C(F)(F)F)c2)C(=S)N1Cc1ccc(-n2ccnc2)nc1 [Example 1, 4-(3-{[6-(1H-Imidazol-1-yl)pyridin-3-yl]methyl}-4,4-dimethyl-5-oxo-2-thioxoimidazolidin-1-yl)-2-(trifluoromethyl)benzonitrile]
IC50 [1, 4]: 291 nM | IC50 [2]: 7.21 nM | EC50 [3]: > 10000 nM

CC1(C)C(=O)N(c2ccc(C#N)c(C(F)(F)F)c2)C(=S)N1Cc1ccc(C(F)(F)F)nc1 [Example 2, 4-(4,4-Dimethyl-5-oxo-2-thioxo-3-{[6-(trifluoromethyl)pyridin-3-yl]methyl}imidazolidin-1-yl)-2-(trifluoromethyl)benzonitrile]
IC50 [1, 4]: 247 nM | IC50 [2]: 14.2 nM | EC50 [3]: 5430 nM

CC1(C)C(=O)N(c2ccc(C#N)c(C(F)(F)F)c2)C(=S)N1Cc1ccc(N2CCOCC2)nc1 [Example 4, 4-(4,4-Dimethyl-3-{[6-(morpholin-4-yl)pyridin-3-yl]methyl}-5-oxo-2-thioxoimidazolidin-1-yl)-2-(trifluoromethyl)benzonitrile]
IC50 [1, 4]: 124 nM | IC50 [1, 5]: 124 nM | IC50 [2]: 77.2 nM | EC50 [3]: > 10000 nM

CC1(C)C(=O)N(c2ccc(C#N)c(C(F)(F)F)c2)C(=S)N1Cc1ccc(N2CCS(=N)(=O)CC2)nc1 [Example 9, 4-(3-{[6-(1-Imino-1-oxido-1λ^6-thiomorpholin-4-yl)pyridin-3-yl]methyl}-4,4-dimethyl-5-oxo-2-thioxoimidazolidin-1-yl)-2-(trifluoromethyl)benzonitrile]
IC50 [2]: 5.65 nM | EC50 [3]: > 10000 nM

CC(C)(O)COc1ccc(CN2C(=S)N(c3ccc(C#N)c(C(F)(F)F)c3)C(=O)C2(C)C)cn1 [Example 10, 4-(3-{[6-(2-Hydroxy-2-methylpropoxy)pyridin-3-yl]methyl}-4,4-dimethyl-5-oxo-2-thioxoimidazolidin-1-yl)-2-(trifluoromethyl)benzonitrile]
IC50 [1, 4]: 229 nM | IC50 [1, 5]: 229 nM | IC50 [2]: 26.3 nM | EC50 [3]: > 10000 nM

Cc1nc(C(F)(F)F)ccc1CN1C(=S)N(c2ccc(C#N)c(C(F)(F)F)c2)C(=O)C1(C)C [Example 13, 4-(4,4-Dimethyl-3-{[2-methyl-6-(trifluoromethyl)pyridin-3-yl]methyl}-5-oxo-2-thioxoimidazolidin-1-yl)-2-(trifluoromethyl)benzonitrile]
IC50 [1, 4]: 300 nM | IC50 [2]: 24.7 nM | EC50 [3]: > 10000 nM
